Converted amounts (≈) assume the structure as drawn.

As a reminder, the MIC is the smallest concentration in the dilution series that meets the test's criterion for growth inhibition. As a reminder, the IC50 is the concentration needed to halve the response being measured.

One assay has as its system Fusarium solani. The experiment in a line: Antimicrobial activity against Fusarium solani NRRL 13414 after 48 to 72 hrs by microbroth dilution method. Format: functional. (In general: In broth dilution the organism is exposed to a series of concentrations in liquid medium.)
A further assay deals with Staphylococcus aureus. The experiment in a line: Antimicrobial activity against Staphylococcus aureus NRRL B-767 after 18 to 24 hrs by microbroth dilution method. Format: functional.
Another assay concerns Penicillium chrysogenum. The experiment in a line: Antimicrobial activity against Penicillium chrysogenum NRRL 1951 after 48 to 72 hrs by microbroth dilution method. Type of assay: functional.
In a further assay the test system is Aspergillus ochraceus. The experiment in a line: Antimicrobial activity against Aspergillus ochraceus NRRL 3174 after 48 to 72 hrs by microbroth dilution method. Format: functional.
A further assay relates to Escherichia coli. The experiment in a line: Antimicrobial activity against Escherichia coli ATCC 25922 after 18 to 24 hrs by microbroth dilution method. Type of assay: functional.
The test system of the next assay is Listeria monocytogenes. The experiment in a line: Antimicrobial activity against Listeria monocytogenes ATCC 7644 after 18 to 24 hrs by microbroth dilution method. Format: functional.
The test system of the next assay is Fusarium culmorum. As to the kind of experiment: Antimicrobial activity against wild type Fusarium culmorum after 48 to 72 hrs by microbroth dilution method. Type of assay: functional.
A further assay deals with Fusarium verticillioides. As to the kind of experiment: Antimicrobial activity against Fusarium moniliforme NRRL 1866 after 48 to 72 hrs by microbroth dilution method. Format: functional.
In a further assay the test system is NIH3T3. The experiment in a line: Cytotoxicity against mouse NIH/3T3 cells after 24 hrs by MTT assay. The conditions noted are these: NIH3T3, 24 h. Type of assay: cell-based. (In general: Formazan colour is commonly taken as a measure of viable cells.)
In the next assay the test system is Trichoderma harzianum. The experiment in a line: Antimicrobial activity against Trichoderma harzianum NRRL 20565 after 48 to 72 hrs by microbroth dilution method. Type of assay: functional.
The subject of a further assay is Aspergillus parasiticus. The experiment in a line: Antimicrobial activity against Aspergillus parasiticus NRRL 465 after 48 to 72 hrs by microbroth dilution method. Type of assay: functional.
In the next assay the test system is Bacillus subtilis. The experiment in a line: Antimicrobial activity against Bacillus subtilis NRS-744 after 18 to 24 hrs by microbroth dilution method. Format: functional.
The test system of a further assay is Pseudomonas aeruginosa. As to the kind of experiment: Antimicrobial activity against Pseudomonas aeruginosa […] after 18 to 24 hrs by microbroth dilution method. Format: functional.
The next assay concerns Micrococcus luteus. As to the kind of experiment: Antimicrobial activity against Micrococcus luteus NRLL B-4375 after 18 to 24 hrs by microbroth dilution method. Type of assay: functional.
A further assay has as its system Candida albicans. The experiment in a line: Antimicrobial activity against Candida albicans ATCC 22019 after 18 to 24 hrs by microbroth dilution method. Format: functional.

Regarding `Cc1nnc(SCC(=O)N/N=c2/scc(-c3ccc([N+](=O)[O-])cc3)n2-c2ccccc2)s1`, the MIC is 250 µg/mL (≈ 516 µM) against Fusarium solani; 500 µg/mL (≈ 1030 µM) in the assay with Staphylococcus aureus; 250 µg/mL (≈ 516 µM) against Penicillium chrysogenum; 250 µg/mL (≈ 516 µM) against Aspergillus ochraceus; 250 µg/mL (≈ 516 µM) with Escherichia coli; 250 µg/mL (≈ 516 µM) against Listeria monocytogenes. The MIC in the assay with Fusarium culmorum, in the assay with Fusarium verticillioides, against Trichoderma harzianum, in the assay with Aspergillus parasiticus, in the assay on Bacillus subtilis and against Pseudomonas aeruginosa was 250 µg/mL (≈ 516 µM) each time. Also, the MIC with Micrococcus luteus and in the assay on Candida albicans was 250 µg/mL (≈ 516 µM) in each case. In addition, half-maximal inhibition with NIH3T3 (IC50) was put at 177 µg/mL (≈ 365 µM).

As to `COc1ccc(-c2cs/c(=N/NC(=O)CSc3nnnn3C)n2-c2ccccc2)cc1`, the MIC stood at 250 µg/mL (≈ 551 µM) in the assay on Fusarium solani; 250 µg/mL (≈ 551 µM) with Staphylococcus aureus; 250 µg/mL (≈ 551 µM) against Penicillium chrysogenum; 250 µg/mL (≈ 551 µM) in the assay on Aspergillus ochraceus; 500 µg/mL (≈ 1100 µM) with Escherichia coli; 250 µg/mL (≈ 551 µM) in the assay with Listeria monocytogenes. The MIC against Fusarium culmorum, in the assay on Fusarium verticillioides, in the assay on Trichoderma harzianum, against Aspergillus parasiticus, with Bacillus subtilis and in the assay on Pseudomonas aeruginosa was 250 µg/mL (≈ 551 µM) each time. Moreover, the MIC against Micrococcus luteus and in the assay with Candida albicans was 250 µg/mL (≈ 551 µM) each time. It took 45 µg/mL (≈ 99.2 µM) to reach half-maximal inhibition in the assay with NIH3T3 (IC50).

With `O=C(CSc1nnnn1-c1ccccc1)N/N=c1/scc(-c2ccc([N+](=O)[O-])cc2)n1-c1ccccc1`, the MIC against Fusarium solani, against Staphylococcus aureus, in the assay with Penicillium chrysogenum, with Aspergillus ochraceus, in the assay on Escherichia coli and against Listeria monocytogenes was 250 µg/mL (≈ 471 µM) each time. The MIC against Fusarium culmorum was determined as 250 µg/mL (≈ 471 µM); in the assay on Fusarium verticillioides, 250 µg/mL (≈ 471 µM); with Trichoderma harzianum, 125 µg/mL (≈ 236 µM); with Aspergillus parasiticus, 250 µg/mL (≈ 471 µM); in the assay on Bacillus subtilis, 250 µg/mL (≈ 471 µM); in the assay with Pseudomonas aeruginosa, 250 µg/mL (≈ 471 µM). Further, the MIC with Micrococcus luteus was found to be 500 µg/mL (≈ 942 µM); with Candida albicans, 250 µg/mL (≈ 471 µM). This molecule also showed an IC50 with NIH3T3 of 14.3 µg/mL (≈ 27 µM).

For `Cn1nnnc1SCC(=O)N/N=c1/scc(-c2ccc(F)cc2)n1-c1ccccc1`, the MIC came out at 250 µg/mL (≈ 566 µM) in the assay with Fusarium solani; 250 µg/mL (≈ 566 µM) against Staphylococcus aureus; 250 µg/mL (≈ 566 µM) with Penicillium chrysogenum; 250 µg/mL (≈ 566 µM) against Aspergillus ochraceus; 125 µg/mL (≈ 283 µM) with Escherichia coli; 250 µg/mL (≈ 566 µM) against Listeria monocytogenes. The MIC against Fusarium culmorum, against Fusarium verticillioides, against Trichoderma harzianum, in the assay on Aspergillus parasiticus, against Bacillus subtilis and in the assay on Pseudomonas aeruginosa was 250 µg/mL (≈ 566 µM) each time. The MIC in the assay on Micrococcus luteus and with Candida albicans was 250 µg/mL (≈ 566 µM) each time. Besides, the IC50 in the assay with NIH3T3 worked out at 113 µg/mL (≈ 257 µM).

In the case of `COc1ccc(-c2cs/c(=N/NC(=O)CSc3nnnn3-c3ccccc3)n2-c2ccccc2)cc1`, the MIC with Fusarium solani, against Staphylococcus aureus, against Penicillium chrysogenum, in the assay with Aspergillus ochraceus, with Escherichia coli and against Listeria monocytogenes was 250 µg/mL (≈ 485 µM) in each case. Moreover, the MIC in the assay with Fusarium culmorum worked out at 125 µg/mL (≈ 242 µM); in the assay with Fusarium verticillioides, 250 µg/mL (≈ 485 µM); in the assay on Trichoderma harzianum it was 125 µg/mL (≈ 242 µM); against Aspergillus parasiticus, 250 µg/mL (≈ 485 µM); in the assay with Bacillus subtilis, 500 µg/mL (≈ 970 µM); in the assay with Pseudomonas aeruginosa, 250 µg/mL (≈ 485 µM). In addition, the results for the MIC in the assay on Micrococcus luteus and against Candida albicans were 125 µg/mL (≈ 242 µM) and 250 µg/mL (≈ 485 µM), respectively. Moreover, in the assay with NIH3T3, the IC50 turned out to be 11.7 µg/mL (≈ 22.7 µM).

As to `CC(=O)N1CCN(c2ccc(OCC3COC(Cn4ccnc4)(c4ccc(Cl)cc4Cl)O3)cc2)CC1` (centres undefined) [KETOCONAZOLE], the MIC in the assay with Fusarium solani was found to be 500 µg/mL (≈ 941 µM); against Penicillium chrysogenum, 7.8 µg/mL (≈ 14.7 µM); with Aspergillus ochraceus it was 250 µg/mL (≈ 470 µM); against Fusarium culmorum, 500 µg/mL (≈ 941 µM); in the assay with Fusarium verticillioides, 500 µg/mL (≈ 941 µM); with Trichoderma harzianum it was 250 µg/mL (≈ 470 µM). Further, the values for the MIC with Aspergillus parasiticus and with Candida albicans were 125 µg/mL (≈ 235 µM) and 250 µg/mL (≈ 470 µM), respectively.

Regarding `CN[C@@H]1[C@H](O[C@H]2[C@H](O[C@H]3[C@H](O)[C@@H](O)[C@H](N=C(N)N)[C@@H](O)[C@@H]3N=C(N)N)O[C@@H](C)[C@]2(O)C=O)O[C@@H](CO)[C@H](O)[C@H]1O` [STREPTOMYCIN], the MIC against Staphylococcus aureus came to 31.2 µg/mL (≈ 53.7 µM); in the assay on Escherichia coli, 31.2 µg/mL (≈ 53.7 µM); in the assay on Listeria monocytogenes it was 7.81 µg/mL (≈ 13.4 µM); in the assay with Bacillus subtilis, 15.6 µg/mL (≈ 26.9 µM); against Pseudomonas aeruginosa it was 125 µg/mL (≈ 215 µM); against Micrococcus luteus it was 15.6 µg/mL (≈ 26.9 µM).

The values are drawn from ChEMBL document CHEMBL3124777, “Synthesis and biological evaluation of thiazoline derivatives as new antimicrobial and anticancer agents” (Eur J Med Chem, 2014).
